Test results from PMC10377586 (Biomolecules, 2023).

Legend:
[1] = tested on: SH-SY5Y cells; experiment: Neuroprotection against H2O2-induced toxicity, LDH assay; format: cell-based; details: 300 µM hydrogen peroxide, compounds at 10 or 50 µM
Method: For neuroprotection studies, a cellular model of neuroblastoma SH-SY5Y cells exposed to hydrogen peroxide was applied. Lactate dehydrogenase (LDH) release was used as a measure of cell death. First, the compounds (11a, 11c, 12, 13, 20a, 21, and 22) were tested for their possible intrinsic neurotoxicity to the SH-SY5Y cell line (see Supplementary Figure S1). […] All other compounds were tested for cytoprotective effects against H2O2-induced toxicity in SH-SY5Y cells.
Neuroblastoma SH-SY5Y cells were seeded at the density of 20,000 cells per well to 96-well plates one day before the experiment. Twelve hours prior to start of the assay, cell culture medium was replaced with the fresh portion of reduced serum (1%) medium. Tested compounds were added to the cells at the final concentration of 10 or 50 µM in 1% DMSO. In the neuroprotection studies, hydrogen peroxide, at a final concertation of 300 µM, was pipetted to the assay plate 1 h after tested compounds addition. Cell death, represented by the release of LDH through the perforated cell membrane, was measured following 14 h incubation of cells with the compounds and hydrogen peroxide. LDH levels in cell culture medium were determined using fluorometric CytoTox-ONE Homogeneous Membrane Integrity Assay (Promega Corporation, Madison, WI, USA), according to manufacturer’s instructions.
Figure 3 The ability of tested compounds to reduce the cytotoxicity of 300 μM hydrogen peroxide (HP) on dopaminergic neuronal cells (SH-SY5Y) as judged by LDH assay. Data represent the mean of two experiments performed in triplicate. Results are presented as percent of cytotoxicity induced by 300 µM hydrogen peroxide (HP) ± SEM. NT–vehicle control (1% DMSO).

[2] = DPPH antioxidant assay; format: physicochemical; details: compound at 50 µM
From the text: The 2,2-diphenyl-1-picrylhydrazyl (DPPH) assay was used to determine the antioxidant properties of selected compounds using ascorbic acid, trolox, and quercetin as references. […] From a structural point of view, 21 and 22 share a common pyrimido[2,1-f]purinedione core with propyl or butyl substituents at the N1- and N3-position. Compounds 11i and 11l, containing hexyl or phenoxyethyl as N7-substituents, were the only structures in the groups of bicyclic xanthine derivatives that lacked antioxidant activity in the DPPH assay.
Antioxidant properties of considered structures were evaluated in DPPH test. The assay utilizes a stable free radical 2,2-diphenyl-1-picrylhydrazyl (DPPH). DPPH has a deep violet color in solution and strong absorption band at 520 nm. The antioxidant activity of the tested compounds was defined by their ability to induce the formation of the reduced form of DPPH. Upon reduction, DPPH color turned pale yellow, which manifested by decreased sample absorption at 520 nm and was measured in conducted experiments using EnSpire microplate reader (PerkinElmer). Antioxidant activity of xanthine derivatives and reference compounds was tested in triplicate at 50 µM concentration and normalized to the activity of reference radical scavenger—quercetin.
Figure 2 Antioxidant properties of xanthine derivatives evaluated in the DPPH test. All compounds were tested at 50 µM concentration. Results were normalized to the antioxidant activity measured for quercetin. ASC, ascorbic acid; TLX, trolox; QCT, quercetin.

[3] = molecular target: T1, rat A2A (rA2A) ARs (Rattus norvegicus, UniProt P30543); experiment: Radioligand binding [3H]MSX-2, rat brain striatal membranes; details: read-out: rA2A [3H]MSX-2 Ki ± SEM
T1 construct: rat brain striatal membrane preparations for A2A AR assays; tissue Pel Freez; host or cells: rat brain striatum membranes
Method: The final compounds were tested in radioligand binding assays to evaluate their affinity for all four ARs subtypes (see Table 2). Rat brain cortical membrane preparations were used as a source of rat A1 (rA1) ARs, and rat brain striatal membrane preparations served as a source of rat A2A (rA2A) ARs. For A2B- and A3AR assays, membrane preparations of Chinese hamster ovary (CHO) cells recombinantly expressing either human A2B (hA2B) or human A3 (hA3) ARs were employed.
Adenosine receptor radioligand binding assays were performed as previously described using rat brain cortical membrane preparations for A1 and rat brain striatal membrane preparations for A2A AR assays. Frozen rat brains (unstripped) were obtained from Pel Freez, Rogers, AR, USA. For assays at human AR subtypes, cell membranes of CHO cells recombinantly expressing the respective receptor were used. The following compounds were employed as radioligands: A1: [^3H]2-chloro-N^6-cyclopentyladenosine ([^3H]CCPA); A2A: [^3H]3-(3-hydroxypropyl)-7-methyl-8-(m-methoxystyryl)-1-propargylxanthine ([^3H]MSX-2); A2B: [^3H]8-(4-(4-(4-chlorophenyl)piperazine-1-sulfonyl)phenyl)-1-propylxanthine ([^3H]PSB-603); A3: [^3H]phenyl-8-ethyl-4-methyl-(8R)-4,5,7,8-tetrahydro-1H-imidazo[2,1-i]purine-5-one ([^3H]PSB-11). Initially, a single high concentration of compound was tested (1 µM). For potent compounds, full concentration–inhibition curves were determined using six to ten different concentrations of test compound spanning three orders of magnitude. At least three independent experiments were performed. Data were analyzed using GraphPad PRISM program version 4.0 or higher (Graph Pad, San Diego, CA, USA).

[4] = molecular target: human D2L receptor (Homo sapiens, UniProt P14416); experiment: Radioligand binding [3H]-raclopride, HEK293 membranes; details: HEK293 cells, human D2; read-out: hD2 [3H]-Raclopride Ki ± SEM
Method: Rat brain cortical membranes were used as source of native rat D1 receptor protein, and human D2 receptor was recombinantly expressed in HEK293 cells.
HEK293 cells with stable expression of human D2L receptor were maintained at 37 °C in a humidified atmosphere with 5% CO2 and grown in Dulbecco’s Modifier Eagle Medium containing 10% dialyzed fetal bovine serum and 500 µg/mL G418 sulfate. For membrane preparation, cells were subcultured in 150 cm^2 flasks, grown to 90% confluence, washed twice with prewarmed to 37 °C phosphate buffered saline (PBS), and pelleted by centrifugation (200× g) in PBS containing 0.1 mM EDTA and 1 mM dithiothreitol. Prior to membrane preparation, pellets were stored at −80 °C.
Cell pellets were thawed and homogenized in 10 volumes of assay buffer using an Ultra Turrax tissue homogenizer and centrifuged twice at 35,000× g for 15 min at 4 °C. The incubation buffer consisted of 50 mM Tris-HCl, 1 mM EDTA, 4 mM MgCl2, 120 mM NaCl, 5 mM KCl, 1.5 mM CaCl2, and 0.1% ascorbate. Assay was incubated in a total volume of 200 µL in 96-well microtiter plate for 1 h at 37 °C. The process of equilibration was terminated by rapid filtration through Unifilter plate with a 96-well cell harvester and radioactivity retained on the filter was quantified on a Microbeta plate reader (PerkinElmer). For competition studies, the assay samples contained radioligand 2.5 nM [^3H]-raclopride (PerkinElmer). Non-specific binding was defined with 10 µM of haloperidol. Each compound was tested in triplicate at 7 concentrations (10^−10–10^−4 M). The inhibition constants (Ki) were calculated from the Cheng–Prusoff equation [66]. Results were expressed as means of at least two separate experiments.

human D2L receptor, sequence (P14416 whole entry): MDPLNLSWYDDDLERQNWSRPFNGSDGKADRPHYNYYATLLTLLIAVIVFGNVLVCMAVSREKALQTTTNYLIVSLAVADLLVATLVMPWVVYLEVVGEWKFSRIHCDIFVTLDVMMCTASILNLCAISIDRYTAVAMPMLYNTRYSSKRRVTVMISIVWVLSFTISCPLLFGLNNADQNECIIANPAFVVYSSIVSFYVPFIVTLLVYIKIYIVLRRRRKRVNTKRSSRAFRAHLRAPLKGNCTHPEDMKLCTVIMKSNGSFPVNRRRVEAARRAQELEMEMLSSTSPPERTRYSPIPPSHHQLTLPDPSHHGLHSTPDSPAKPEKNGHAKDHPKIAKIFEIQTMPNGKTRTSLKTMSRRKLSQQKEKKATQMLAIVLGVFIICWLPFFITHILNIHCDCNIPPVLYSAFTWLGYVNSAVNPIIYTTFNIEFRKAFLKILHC
T1 sequence (P30543 whole entry): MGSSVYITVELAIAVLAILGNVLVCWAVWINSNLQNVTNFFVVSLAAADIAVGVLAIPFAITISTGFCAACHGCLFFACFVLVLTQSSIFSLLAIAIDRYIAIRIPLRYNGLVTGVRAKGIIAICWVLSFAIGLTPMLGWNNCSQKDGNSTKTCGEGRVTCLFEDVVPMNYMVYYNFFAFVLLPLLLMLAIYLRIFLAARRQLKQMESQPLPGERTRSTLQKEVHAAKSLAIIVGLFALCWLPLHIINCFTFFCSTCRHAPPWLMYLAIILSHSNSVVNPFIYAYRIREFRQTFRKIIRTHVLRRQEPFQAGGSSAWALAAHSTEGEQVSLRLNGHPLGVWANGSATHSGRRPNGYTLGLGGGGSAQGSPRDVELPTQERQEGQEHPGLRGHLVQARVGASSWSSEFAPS

Compound | dose dependence of cytoprotective effect [1] | Antioxidative Activity [% of Quercetin Response at 50 µM ± SD] [2] | Ki [3] | Ki [4] | cytoprotective effect against H2O2-induced toxicity (LDH release) [1]
CCCn1c(NCCc2ccc(O)c(O)c2)nc2c1c(=O)n(C)c(=O)n2C [Compound 11c, 8-((3,4-Dihydroxyphenethyl)amino)-1,3-dimethyl-7-propyl-3,7-dihydro-1H-purine-2,6-dione] | Dose-dependent responses | 69 ± 1 % of Quercetin Response | 4.72 ± 0.93 µM | 9.37 ± 1.15 µM | 
CCCn1c(=O)c2c(nc(NCCc3ccc(O)c(O)c3)n2CCC)n(CCC)c1=O [Compound 12, 8-((3,4-Dihydroxyphenethyl)amino)-1,3,7-tripropyl-3,7-dihydro-1H-purine-2,6-dione] | Dose-dependent responses | 86 ± 3 % of Quercetin Response | 0.833 ± 0.081 µM | 13.3 ± 2.2 µM | most potent
CCCn1c(=O)c2c(nc3n2CCCN3CCc2ccc(O)c(O)c2)n(CCC)c1=O [Compound 21, 9-(3,4-Dihydroxyphenethyl)-1,3-dipropyl-6,7,8,9-tetrahydropyrimido[2,1-f]purine-2,4(1H,3H)-dione] | Dose-dependent responses | 13 ± 1 % of Quercetin Response | 0.274 ± 0.081 µM | 12.7 ± 2.8 µM | most potent
CCCCn1c(=O)c2c(nc3n2CCCN3CCc2ccc(O)c(O)c2)n(CCCC)c1=O [Compound 22, 1,3-Dibutyl-9-(3,4-dihydroxyphenethyl)-6,7,8,9-tetrahydropyrimido[2,1-f]purine-2,4(1H,3H)-dione] |  | 26 ± 2 % of Quercetin Response | 0.334 ± 0.052 µM | 16.6 ± 2.3 µM | most potent
